# Data: US11471434B2, “Treatment for migraine” (INTRABIO LTD., priority 2017, dated 2022)
# Key:
# [1] = system: NPC Chinese Hamster Ovary (CHO) cells; assay: Relative lysosomal volume via LysoTracker in NPC CHO cells; assay type: cell-based; conditions: 1 mM, 72 hours, p <0.01 versus untreated NPC1-null, FIG. 1
# Experimental: NPC Chinese Hamster Ovary (CHO) cells were treated in vitro for 72 hours with 1 mM of acetyl-DL-leucine, acetyl-L-leucine, acetyl-D-leucine, DL-leucine, L-leucine, and D-leucine, respectively. Relative lysosomal volume was quantified via LysoTracker.
# Data presented in FIG. 1 show the results for each treatment, with lysosomal volume expressed as fold change relative to untreated wild-type […]. The asterisks (**) indicate a p-values of <0.01 versus untreated NPC1-null.
# [2] = system: vertigo; conditions: cited from earlier work
# [3] = system: ataxia of different etiologies; conditions: patients with ataxia, responders (Becker-Bense 2015); cited from earlier work
# [4] = system: Niemann-Pick Type C (NPC); conditions: 12 patients with NPC (Bremova 2015); cited from earlier work
# [5] = system: cerebellar ataxia; conditions: patients with cerebellar ataxia (Schniepp 2015); cited from earlier work
# [6] = system: cerebellar symptoms; conditions: cited from earlier work
# [7] = system: Migraine and Vestibular Migraine; assay: Case study Example 4: Tanganil for migraine and vestibular migraine; assay type: in vivo, human; conditions: before treatment with Tanganil
# Source text: Patient Details: • Sex: […] • Six tablets of Tanganil® per day: two in the morning, two at noon and two in the evening for one week; thereafter, ten tablets of Tanganil® per day: four in the morning, three at noon and three in the evening. Tanganil® tablets as described in Example 1.
# [8] = system: acute unilateral labyrinthectomy; conditions: rat, by activation of the vestibulo-cerebellum and deactivation of the posterolateral thalamus (Gunther 2015); cited from earlier work
# [9] = system: Migraine with Aura; assay: Case study Example 3: Tanganil for migraine with aura; assay type: in vivo, human; conditions: 600 mg taken once a week; before treatment with Tanganil
SMILES,"lysosomal volume (LysoTracker), fold change relative to untreated wild-type [1]",improvement of attacks of migraine headache with pain medication [7],also measured
CC(C)C[C@@H](N)C(=O)O [D-leucine],significantly reduced,–,–
CC(C)C[C@H](N)C(=O)O [L-leucine],significantly reduced,–,–
CC(=O)NC(CC(C)C)C(=O)O (racemic) [acetyl-DL-leucine],significantly reduced,–,"cases with improvement in vertigo symptomology ([2]; clinical results reported by various authors, including disappearance of vertigo attacks): more than 95 % of cases; safety profile ([2]; used in France to treat acute vertigo since 1957): excellent safety profile; brain metabolism (PET) [3]: increased metabolism in the midbrain and lower brainstem; ataxia [4]: significant improvement in ataxia; gait variability [5]: improves gait variability; benefit in cerebellar patients ([6]; another case series (Pelz 2015)): did not find benefit; cerebellar symptoms ([6]; case series (Strupp 2013)): improvement of cerebellar symptoms"
CC(=O)Oc1ccccc1C(=O)O [Aspirin],–,no improvement,–
CC(C)CC(N)C(=O)O (racemic) [DL-leucine],significantly reduced,–,–
CC(=O)N[C@H](CC(C)C)C(=O)O [acetyl-D-leucine],significantly reduced,–,–
Cc1c(N(C)CS(=O)(=O)[O-])c(=O)n(-c2ccccc2)n1C.[Na+] [Novalgin],–,improvement,–
CC(=O)N[C@@H](CC(C)C)C(=O)O [acetyl-L-leucine],significantly reduced,–,effect on postural compensation [8]: significant effect
CC(C)Cc1ccc(C(C)C(=O)O)cc1 (stereo not drawn) [Ibuprofen],–,no improvement,response of headache attacks [9]: responding
